Data published in patent US20240261244A1, “METHODS FOR TREATING VIRAL INFECTIONS” (Daarsh Innovations, Inc., priority 2023, published 2024).

Test system: SARS Cov-2 virus
Type: cell-based
Settings: 90 μL test solution + 10 μL virus (about 10^5 PFU/ml), 3 minutes contact at room temperature; plaque assay on Vero E6 cells

SMILES: O=C(O)CN(CCN(CC(=O)O)CC(=O)O)CC(=O)O [EDTA 5%, ethylenediaminetetraacetic acid]
- Residual Viral Load (Log PFU/0.1 ml): 3.40 Log PFU/0.1 ml
